# Values of other authors in patent US9532983B2, “Benzofuran compounds, compositions, kits and/or methods thereof” (Savannah State University, priority 2013, dated 2017).
# Target: σ1 receptor (Homo sapiens, UniProt Q99720)
# Settings: read-out: affinity for the σ1 receptor; Maurice et al.; cited from earlier work
# σ1 receptor, sequence (Q99720 whole entry, species assumed): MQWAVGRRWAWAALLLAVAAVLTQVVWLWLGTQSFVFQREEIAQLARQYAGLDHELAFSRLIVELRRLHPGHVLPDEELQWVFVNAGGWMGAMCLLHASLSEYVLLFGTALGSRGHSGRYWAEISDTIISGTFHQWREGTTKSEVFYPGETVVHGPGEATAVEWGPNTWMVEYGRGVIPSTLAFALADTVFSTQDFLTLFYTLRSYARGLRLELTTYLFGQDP
structure (smiles),measurement,value
Cc1ccc2c(c1)[C@]13CCCC[C@@H]1[C@H](C2)N(C)CC3 [dimemorfan],Ki,151 nM
